Measured values: PMC12845261, “Design, Synthesis, and Biological Evaluation of N-Acyl-Hydrazone-Linked Quinazolinone Derivatives with Antioxidant, Antimicrobial, and Anticancer Potential” (Pharmaceuticals, 2025)
≈ marks a conversion by molar mass, not a printed value. Where “and” joins values, the source holds several entries; their conditions need not be identical. Equal entries are not always repeated. Where two headings read alike, the source gives them in different places.

Experiments:
C. albicans ATCC 10231 [1] = assay: Quantitative antimicrobial activity, serial binary microdilution (MIC, IC50); format: cell-based; settings: Candida albicans, ATCC10231, 24 h, 37 °C, DMSO control 1.25
Description: (§1) For the evaluation of antimicrobial activity, the following reference strains were used: S. aureus ATCC 25923, E. faecalis ATCC 29212, E. coli ATCC 25922, P. aeruginosa ATCC 27853 and C. albicans ATCC 10231.
Quantitative analysis was performed using the method of serial binary microdilutions in liquid medium (Tryptone Soy Broth for bacteria and Sabouraud Broth for yeasts) in plates with 96 wells. Stock solutions of 10 mg/mL were made in DMSO, and the range of concentrations tested for each compound was 5000–0.16 μg/mL. Simultaneously, the DMSO control was carried out under the same working conditions. Each well was inoculated with 10 μL of microbial suspension, adjusted to a density of 1.5 × 10^8 CFU/mL prepared from 18 to 24 h cultures. After 24 h of incubation at 37 °C, microbial growth and multiplication were evaluated both macroscopically and spectrophotometrically at 620 nm to establish the MIC values. […] Blanks were made for each sample concentration, and the formula was applied: Microbial viability(%)=Asample−Ablank/Astrain control−Asterility control·100

[2] = Total antioxidant capacity (TAC), DPPH method; settings: 30 min, 517 nm, compound stock 1 mg/mL in methanol, reference ascorbic acid TAC = 100%
Description: The total antioxidant capacity (TAC) was evaluated using diphenyl-1-picrylhydrazyl free radical (DPPH) method. The TAC value was determined in relation to the antioxidant capacity of the reference (ascorbic acid, TAC = 100%). […] The maximum value was recorded for 1c (~45%), followed by 1f and 1a (~43%), while the minimum for 1e (~19%).
In this study, the TAC values were obtained using the most-known DPPH method, in which the intense violet colour of the free radical solution is decreasing. Stock solutions of compounds 1a–1f and 2 were prepared in absolute methanol at a concentration of 1 mg/mL. A stock solution of 2,2-diphenyl-1-picrylhydrazyl free radical was obtained in the same solvent, at a concentration of 2 × 10^−4 M. To 1.8 mL of DPPH solution was added 0.2 mL of each solution of the compounds 1a–1f and 2 and the mixture was left in the dark for 30 min, followed by measurements of the absorbance at 517 nm. The following equation was used to calculate TAC: TAC%=Abs0 min−Abs30 min/Abs0min·100 where Abs0 min refers to the initial absorbance of the DPPH free radical solution, and Abs 30 min refers to the absorbance of the solution of DPPH and the added compound after 30 min. Ascorbic acid was used as a reference.

E. faecalis ATCC 29212 [3] = assay: Microbicidal activity (MMC); format: cell-based; settings: DMSO control >5
Description: (§2) For the evaluation of antimicrobial activity, the following reference strains were used: S. aureus ATCC 25923, E. faecalis ATCC 29212, E. coli ATCC 25922, P. aeruginosa ATCC 27853 and C. albicans ATCC 10231. To determine the MMCs, 5 μL of culture was taken from each well and distributed on solid medium. The plates were incubated for 20–24 h at 37 °C. The lowest concentration at which no microbial growth was observed was considered MMC.

C. albicans ATCC 10231 [4] = assay: Microbicidal activity (MMC); format: cell-based; settings: DMSO control 5
Description: as §2

P. aeruginosa ATCC 27853 [5] = assay: Microbicidal activity (MMC); format: cell-based; settings: DMSO control 2.5
Description: as §2

S. aureus ATCC 25923 [6] = assay: Microbicidal activity (MMC); format: cell-based; settings: DMSO control 5
Description: as §2

E. coli ATCC 25922 = assay: Microbial adhesion, crystal violet (MICMA); format: cell-based; settings: DMSO control 5
Description: as §1
(§3) Following quantitative analysis of antimicrobial activity, microbial adhesion was evaluated after methanol fixation and violet crystal staining (0.1%). The absorbance of the adhered biomass colored with violet crystal and resuspended in 33% acetic acid was measured at 490 nm.

E. faecalis ATCC 29212 [7] = assay: Microbial adhesion, crystal violet (MICMA); format: cell-based; settings: DMSO control 2.5
Description: as §1, §3

C. albicans ATCC 10231 [8] = assay: Microbial adhesion, crystal violet (MICMA); format: cell-based; settings: DMSO control 1.25
Description: as §1, §3

P. aeruginosa ATCC 27853 [9] = assay: Microbial adhesion, crystal violet (MICMA); format: cell-based; settings: DMSO control 1.25
Description: as §1, §3

S. aureus ATCC 25923 [10] = assay: Microbial adhesion, crystal violet (MICMA); format: cell-based; settings: DMSO control 5
Description: as §1, §3

[11] = system: HT-29 (human colorectal adenocarcinoma); assay: Cytotoxicity, MTT assay; format: cell-based; settings: 24 h; for Cytotoxic effect (in words): 3.125 to 50 µM; for IC50: tested range 3.125 to 50 µM; for Cell viability: at corresponding concentrations (comparison with 5-FU), concentration not named
Description: (§4) For the cytotoxicity screening of the N-acyl-hydrazone derivatives, three cell lines were employed: HT-29 (human colorectal adenocarcinoma), A431 (human epidermoid carcinoma), and VERO (non-tumoral African green monkey kidney epithelial cells). All cell lines were obtained from the American Type Culture Collection (ATCC, Manassas, VA, USA), and maintained in appropriate culture media as follows: HT-29 and A431 cells were cultured in Dulbecco’s Modified Eagle Medium (DMEM), while VERO cells were cultured in Minimum Essential Medium (MEM). Both culture media were supplemented with 10% fetal bovine serum (FBS) and 1% penicillin-streptomycin mix, to formulate the complete culture medium. All cell lines were incubated at 37 °C in a humidified atmosphere containing 5% CO2. […] For the cytotoxicity screening, cells were seeded into sterile 96-well plates at an initial density of 1 × 10^4 cells/well and allowed to adhere for 24 h. Subsequently, cells were treated with increasing concentrations (3.125 to 50 µM) of compounds 1a–1f and 2 for 24 h. In parallel, 5-fluorouracil (5-FU, Sigma Aldrich, St. Louis, MO, USA) was included as a reference drug and tested over the same concentration range under identical experimental conditions. […] For the experimental control, culture medium was refreshed at the time of treatment application. […] Louis, MO, USA). Briefly, the culture media were discarded from each well and replaced with a fresh solution of MTT (1 mg/mL). Plates were incubated for 4 h at 37 °C, and the resulting formazan crystals were solubilized with isopropanol. The absorbance was measured at 550 nm using the FlexStation III multimodal reader (Molecular Devices, San Jose, CA, USA). All experiments were performed in triplicate and repeated in three independent assays. Cell viability was calculated as a percentage relative to the untreated control using the formula Cell Viability (%) = (Abs treated/Abs control) × 100. Data were processed using GraphPad Prism 6.0 and presented as mean ± standard deviation (SD). Statistical analysis was performed using one-way analysis of variance (ANOVA) followed by Dunnett’s post hoc test for comparison with the untreated control group.

[12] = system: A431 (human epidermoid carcinoma); assay: Cytotoxicity, MTT assay; format: cell-based; settings: for viability at 50 µM: A-431, 50 µM, compared to the control, read-out: Cell viability; for viability at 50 µM / Cytotoxic effect (in words) / Cell viability: 24 h; for Cytotoxic effect (in words): 3.125 to 50 µM
Description: as §4

Structure (SMILES)	MIC (C. albicans ATCC 10231 [1]) [µg/mL]	TAC (%) [2]	MMC (E. faecalis ATCC 29212 [3]) [mg/mL]	MMC (C. albicans ATCC 10231 [4]) [mg/mL]	MMC (P. aeruginosa ATCC 27853 [5]) [mg/mL]	MMC (S. aureus ATCC 25923 [6]) [mg/mL]	MICMA (E. coli ATCC 25922) [mg/mL]	MICMA (E. faecalis ATCC 29212 [7]) [mg/mL]	MICMA (C. albicans ATCC 10231 [8]) [mg/mL]	MICMA (P. aeruginosa ATCC 27853 [9]) [mg/mL]	MICMA (S. aureus ATCC 25923 [10]) [mg/mL]	Cytotoxic effect (in words) [11]	viability at 50 µM ([12]; Homo sapiens) [%]	Cell viability [11]	Cytotoxic effect (in words) [12]	further results
COc1cccc(/C=N/NC(=O)Cn2c(C)nc3ccccc3c2=O)c1O [Compound 1c, N′-[(E)-(2-hydroxy-3-methoxyphenyl)methylidene]-2-(2-methyl-4-oxoquinazolin-3(4H)-yl)acetohydrazide]	2500 (≈ 6.82 mM)	45.1%	>5	5	2.5	5	2.5	2.5	0.625	1.25	2.5	potent inhibitory effects at all concentrations tested	~50	–	–	IC50 [11]: did not produce a viability drop sufficient to determine an IC50 value; IC50 ([12]; Homo sapiens, A-431, 24 h, tested range 3.125 to 50 µM): ~50 µM
Cc1nc2ccccc2c(=O)n1CC(=O)N/N=C/c1cc(Br)ccc1O [Compound 1a, N′-[(E)-(5-bromo-2-hydroxyphenyl)methylidene]-2-(2-methyl-4-oxoquinazolin-3(4H)-yl)acetohydrazide]	625 (≈ 1.51 mM)	42.7%	–	5	2.5	>5	1.25	1.25	0.625	0.625	2.5	–	~60	below 50%	–	viability at 50 µM ([11]; Homo sapiens, 50 µM, relative to untreated control, read-out: Cell viability): ~50%; IC50 ([11]; Homo sapiens, read-out: IC50): ~50 µM
COc1ccc(O)c(/C=N/NC(=O)Cn2c(C)nc3ccccc3c2=O)c1 [Compound 1e, N′-[(E)-(2-hydroxy-5-methoxyphenyl)methylidene]-2-(2-methyl-4-oxoquinazolin-3(4H)-yl)acetohydrazide]	1250 (≈ 3.41 mM)	19.3%	>5	–	5	5	5	5	2.5	1.25	2.5	weaker cytotoxic activity	–	–	only mild cytotoxicity	Cell viability ([12]; at all doses (3.125 to 50 µM)): above 70%
Cc1nc2ccccc2c(=O)n1CC(=O)NN [Compound 2, 2-(2-methyl-4-oxoquinazolin-3(4H)-yl)acetohydrazide]	1250 (≈ 5.38 mM)	19.7%	>5	5	5	>5	1.25	>5	–	–	2.5	overall increase in cell viability at all tested concentrations	–	–	no cytotoxic activity	–
COc1cc(/C=N/NC(=O)Cn2c(C)nc3ccccc3c2=O)cc([N+](=O)[O-])c1O [Compound 1f, N′-[(E)-(4-hydroxy-3-methoxy-5-nitrophenyl)methylidene]-2-(2-methyl-4-oxoquinazolin-3(4H)-yl)acetohydrazide]	1250 (≈ 3.04 mM)	43.4%	>5	5	2.5	5	2.5	2.5	1.25	1.25	2.5	no inhibitory effect	–	–	did not exert any inhibitory effect	–
COc1ccc(/C=N/NC(=O)Cn2c(C)nc3ccccc3c2=O)c(O)c1 [Compound 1d, N′-[(E)-(2-hydroxy-4-methoxyphenyl)methylidene]-2-(2-methyl-4-oxoquinazolin-3(4H)-yl)acetohydrazide]	5000 (≈ 13.6 mM)	19.3% and 20.5%	>5	>5	–	>5	2.5	5	1.25	1.25	2.5	–	–	below 50%	–	Reduction of cell viability ([11]; at 50 µM and 25 µM, compared to the control): approximately 50%; Cell viability ([12]; at 50 µM and 25 µM): below 60%
